PubChem BioAssay (NCI)
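48-hour exposure; five concentrations; linearly interpolated endpoints. GI50 is the concentration that inhibits growth by half. TGI: total growth inhibition.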

Experiments:
Experiment in all cases: growth of human tumour cells (NCI), 48 h
LOX IMVI melanoma = tested on: LOX IMVI melanoma
RPMI-8226 leukemia = tested on: RPMI-8226 leukemia
OVCAR-8 ovarian = tested on: OVCAR-8 ovarian
786-0 renal = tested on: 786-0 renal
BT-549 breast = tested on: BT-549 breast
HOP-92 NSCLC = tested on: HOP-92 NSCLC
KM12 colon = tested on: KM12 colon
HCT-116 colon = tested on: HCT-116 colon
IGROV1 ovarian = tested on: IGROV1 ovarian
HOP-62 NSCLC = tested on: HOP-62 NSCLC

Row | Compound | GI50 (LOX IMVI melanoma) | TGI (LOX IMVI melanoma) | GI50 (RPMI-8226 leukemia) | TGI (RPMI-8226 leukemia) | GI50 (OVCAR-8 ovarian) | TGI (OVCAR-8 ovarian) | GI50 (786-0 renal) | TGI (786-0 renal) | GI50 (BT-549 breast) | TGI (BT-549 breast) | TGI (HOP-92 NSCLC) | GI50 (KM12 colon) | TGI (KM12 colon) | GI50 (HCT-116 colon) | TGI (HCT-116 colon) | GI50 (IGROV1 ovarian) | TGI (IGROV1 ovarian) | GI50 (HOP-62 NSCLC) | TGI (HOP-62 NSCLC) | GI50 (HOP-92 NSCLC)
1 | CN(C)c1ccc(-c2cc(-c3ccc(Nc4nc(Nc5ccc(Cl)cc5)nc(Nc5ccc(Cl)cc5)n4)cc3)nc(N)c2C#N)cc1 | 18.9 µM | > 100 µM | 0.864 µM | 53.8 µM | 6.38 µM | > 100 µM | 16.7 µM | > 100 µM | 71.2 µM | > 100 µM | 2.93 µM | 10.3 µM | > 100 µM | 4.99 µM | > 100 µM | 4.53 µM | > 100 µM | > 100 µM | > 100 µM | –
2 | COCCOC1=C(Cl)C(=O)c2ccccc2C1=O | 1.75 µM | 3.31 µM | 2.31 µM | 6.75 µM | 3.11 µM | 10.7 µM | 6.26 µM | 18.8 µM | 3.2 µM | 10.6 µM | 2.93 µM | 2.11 µM | 4.23 µM | 1.82 µM | 3.58 µM | 2.62 µM | 6.44 µM | 3.92 µM | 14.8 µM | 1.41 µM
3 | CCc1ccc(Nc2cc(C)c3ccc(O)cc3n2)cc1 | 5.03 µM | 18.5 µM | 3.19 µM | 20.2 µM | 10.8 µM | 35.3 µM | 6.07 µM | 19.9 µM | 4.48 µM | 16.3 µM | 10.8 µM | 6.01 µM | 21.2 µM | 4.57 µM | 17.4 µM | 6.14 µM | 20.8 µM | 11.5 µM | 24.3 µM | 2.81 µM
4 | CCOC(=O)/C(=C\c1cccc(C)c1)C(C)=O | – | 26.5 µM | – | 32.2 µM | – | 75.1 µM | – | 26.4 µM | – | 22.7 µM | 34.8 µM | – | 32.9 µM | – | 30.4 µM | – | 40.8 µM | – | 96.1 µM | –
5 | CCC(c1ccccc1)c1noc(CCN(CC)CC)n1 (stereo unspecified) | 34.1 µM | > 60.3 µM | 13.2 µM | > 100 µM | 32.5 µM | > 100 µM | 34.4 µM | > 100 µM | 39.6 µM | > 100 µM | 49.6 µM | 22.8 µM | > 56.1 µM | 18.5 µM | 43.4 µM | > 48.5 µM | > 92.1 µM | 42.5 µM | > 100 µM | 7.99 µM
6 | ClCCOCCn1cnc2c(Cl)nc(Cl)nc21 | 5.96 µM | 20.1 µM | 18.6 µM | > 100 µM | 10.3 µM | 26.5 µM | 19.4 µM | 44 µM | 14.7 µM | 28.2 µM | 45.5 µM | 15.9 µM | 29.6 µM | 10.8 µM | 25.1 µM | 3.34 µM | 12.7 µM | 15.7 µM | 30.5 µM | 18.9 µM
7 | CC(C)[C@@H]1CC[C@]2(CO2)[C@@H]2C(=O)OCC(C(=O)O)=C[C@H]21 | 0.331 µM | 1.42 µM | 0.24 µM | 0.635 µM | 0.351 µM | > 100 µM | 0.358 µM | > 100 µM | 0.286 µM | 0.851 µM | 0.79 µM | 0.344 µM | 4.08 µM | 0.325 µM | > 100 µM | 0.442 µM | 8.73 µM | 0.35 µM | 6.94 µM | 0.235 µM
8 | COc1ccc(-c2nc3ccc(Cc4ccc5nc(-c6ccc(OC)cc6)[nH]c5c4)cc3[nH]2)cc1 | 0.0543 µM | 0.217 µM | 0.0425 µM | 0.326 µM | 0.0438 µM | 1.17 µM | 0.0358 µM | 0.381 µM | 0.231 µM | 2.54 µM | 2.26 µM | < 0.01 µM | 0.163 µM | 0.0339 µM | 0.14 µM | 0.0445 µM | 2.26 µM | 0.0291 µM | 2.07 µM | 0.394 µM
9 | CCCCCCCCCCCC[C@@H](O)[C@H]1CC[C@H]([C@H](O)CC[C@H](O)[C@@H]2CC[C@@H](CCCCCCCC3=C[C@H](C)OC3=O)O2)O1 | 1.13 µM | – | 2.45 µM | > 50 µM | 6.6 µM | > 50 µM | 6.4 µM | > 50 µM | 0.00376 µM | – | > 50 µM | 4.26 µM | > 50 µM | 1.7 µM | > 50 µM | 8.89 µM | > 50 µM | – | > 50 µM | 3.08 µM
